This note sets out measurements from patent US20040259888A1, “Novel 4-aminofuropyrimidines and the use thereof” (priority 2001, published 2004).

Series [1] deals with human recombinant adenosine kinase (Homo sapiens, UniProt P55263). Briefly: Inhibition of human recombinant adenosine kinase. To be noted: 14C-adenosine substrate, 0.5 mM ATP, 37° C., 20 min; read-out: Adenosine kinase inhibition (in vitro): IC50. The format is biochemical. The method, then:
1. Inhibition of Human Recombinant Adenosine Kinase
The test is carried out on 96-well filter plates (DE81 from Millipore, DEAE cellulose, 0.65 μm). The test buffer contains 50 mM tris/HCl pH 8.0, 10 mM DTT and 1 mM MgCl2; immediately prior to the start of the test, ATP is added in a concentration of 0.5 mM. The substrate used is ^14C-adenosine, diluted 1:30 in cold adenosine; the final concentration of the cold adenosine is 4×10^−6 M; the amount of ^14C-adenosine is chosen such that, at a volume of 10 μl, an activity of 0.5 kBq (=30 000 decays per minute) is present per well of the filter plate. The substances to be tested are dissolved in DMSO in a concentration of 10^−2 M. Further dilutions are carried out using water.
When carrying out the test, initially 80 μl of buffer are initially charged into each well. The test substances, the substrate adenosine and finally human recombinant adenosine kinase (Mathews J. J. et al., Biochemistry (1998) 37, 15607-15620) in test buffer pH 7.4 are added successively, in each case in a volume of 10 μl. The adenosine kinase concentration is chosen such that at most 30% of the total amount of adenosine are converted. The plates are then incubated at 37° C. for 20 min. The reaction is then stopped by filtration with suction. The filters are washed in each case once with ice-cold wash buffer (15 mM Tris/HCl pH 8.5) and ethanol. The plate is dried at 37° C. (about 15 min). 50 μl of scintillation solution are then pipetted into each well, and the ^14C activity is determined in a MicroBeta counter.
The inhibition of the enzyme activity by the substances tested is determined after substration of the blank value (no added enzyme) in comparison to the uninhibited enzyme (100% value).

Counter-ions that a name gives are not always drawn.

Chain of human recombinant adenosine kinase (P55263 1-345 isoform P55263-2): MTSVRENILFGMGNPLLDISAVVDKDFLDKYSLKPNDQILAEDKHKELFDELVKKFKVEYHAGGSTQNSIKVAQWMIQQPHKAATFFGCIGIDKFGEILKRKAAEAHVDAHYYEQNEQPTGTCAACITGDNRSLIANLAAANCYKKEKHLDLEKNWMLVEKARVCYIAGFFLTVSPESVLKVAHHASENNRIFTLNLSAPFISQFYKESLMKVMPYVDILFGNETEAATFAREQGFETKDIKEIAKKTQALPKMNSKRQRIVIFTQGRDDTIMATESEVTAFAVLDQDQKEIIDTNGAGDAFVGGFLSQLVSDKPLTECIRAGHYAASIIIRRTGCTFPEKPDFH

The compound `CN1CCC(N(C)c2ncnc3oc(-c4ccc(F)cc4)c(-c4ccc(F)cc4)c23)CC1` showed a melting point of 180 to 181 °C.
The same measure, in the same setting: next, `COc1cc(OC)cc(-c2oc3ncnc(NC4CCCCCC4)c3c2-c2ccccc2)c1` [Example 1, N-Cycloheptyl-6-(3,5-dimethoxyphenyl)-5-phenylfuro[2,3-d]pyrimidine-4-amine]: 151 to 152 °C.
Same read-out and setting: the figure for `COc1cc(OC)cc(-c2oc3ncnc(N4CCCCC4)c3c2-c2ccccc2)c1` [Example 2, 6-(3,5-Dimethoxyphenyl)-5-phenyl-4-(1-piperidinyl)furo[2,3-d]pyrimidine] is 152 to 153 °C; for `CN1CCN(c2ncnc3oc(-c4ccc([N+](=O)[O-])cc4)c(-c4ccc(F)cc4)c23)CC1` [Example 3, 5-(4-Fluorophenyl)-4-(4-methyl-1-piperazinyl)-6-(4-nitrophenyl)furo[2,3-d]pyrimidine] it is over 250 °C.
With `CN1CCN(c2ncnc3oc(-c4ccc(NC(=O)CN)cc4)c(-c4ccc(F)cc4)c23)CC1` [Example 6, N-1-{4-[5-(4-Fluorophenyl)-4-(4-methyl-1-piperazinyl)furo[2,3-d]pyrimidin-6-yl]phenylgylcinamidedihydrochloride], the IC50 in series [1] worked out at 20 nM.
`CN1CCN(c2ncnc3oc(-c4ccc(N5CCOCC5)nc4)c(-c4ccccc4)c23)CC1` [Example 7, 4-(4-Methyl-1-piperazinyl)-6-[N-(4-morpholinyl)-3-pyridinyl]-5-phenylfuro[2,3-d]pyrimidine]: the melting point fell in the range of 255 to 257 °C.
As to `CN1CCN(c2ccc(-c3oc4ncnc(N5CCC(O)CC5)c4c3-c3ccccc3)cn2)CC1` [Example 10, 1-{6-[6-(4-Methyl-1-piperazinyl)-3-pyridinyl]-5-phenylfuro[2,3-d]pyrimidin-4-yl]-4-piperidinol], the IC50 in series [1] worked out at 10 nM.
As for `CC(C)CNc1ncnc2oc(-c3ccc(C(=O)N4CCN(C)CC4)cc3)c(-c3ccccc3)c12` [Example 13, N-Isobutyl-6-{4-[(4-methyl-1-piperazinyl)carbonyl]phenyl}-5-phenylfuro[2,3-d]-pyrimidine-4-amine], the IC50 in series [1] is 100 nM.
Still for that read-out and setting: the figure for `CN1CCN(c2ncnc3oc(-c4ccc(N5CCC5=O)cc4)c(-c4ccc(F)cc4)c23)CC1` [Example 24, 1-{4-[5-(4-Fluorophenyl)-4-(4-methyl-1-piperazinyl)furo[2,3-d]pyrimidin-6-yl]phenyl}-2-azetidinone] is 30 nM; for `COc1ccc(-c2oc3ncnc(N(C)C4CCCCCC4)c3c2-c2ccc(OC)cc2)cc1` [Example 29, N-Cycloheptyl-5,6-bis(4-methoxyphenyl)-N-methylfuro[2,3-d]pyrimidine-4-amine] it is 80 nM.
Consider `CN1CCN(c2ncnc3oc(-c4ccc(NC(=O)c5cccnc5)cc4)c(-c4ccccc4)c23)CC1` [Example 32, N-{4-[4-(4-Methyl-1-piperazinyl)-5-phenylfuro[2,3-d]pyrimidin-6-yl]phenyl}-nicotinamide], for which the IC50 in series [1] stood at 30 nM.
`COc1ccc(-c2oc3ncnc(N4CCN(CCO)CC4)c3c2-c2ccc(F)cc2)cc1OC` [Example 39] came in with a melting point of 156 to 158 °C.
On the same count and under the same terms, the figure for `O=C(Nc1ccc(-c2oc3ncnc(N4CCOCC4)c3c2-c2ccc(F)cc2)cc1)c1ccc([N+](=O)[O-])cc1` [Example 47] is over 250 °C; for `CN1CCN(c2ncnc3oc(-c4ccc(NC(=O)c5cccc([N+](=O)[O-])c5)cc4)c(-c4ccc(F)cc4)c23)CC1` [Example 48] it is over 250 °C.
Still for that read-out and setting: the figure for `CN1CCN(c2ncnc3oc(-c4ccc(NC(=O)C5CCCO5)cc4)c(-c4ccc(F)cc4)c23)CC1` (centres unmarked) [Example 49] is over 250 °C.
The same measure, in the same setting: next, `COc1ccc(-c2oc3ncnc(N4CCC(C(N)=O)CC4)c3c2-c2ccc(F)cc2)cc1OC` [Example 51]: 235 to 237 °C; `COc1ccc(-c2oc3ncnc(N4CCN(C)CC4)c3c2-c2ccc(F)cc2)cc1OC` [Example 53]: 168 to 169 °C.
With `COc1ccc(C(=O)Nc2ccc(-c3oc4ncnc(N5CCN(C)CC5)c4c3-c3ccc(F)cc3)cc2)cc1` [Example 54], the melting point lay within 252 to 253 °C.
For `CC(=O)NC(C)C(=O)Nc1ccc(-c2oc3ncnc(N4CCOCC4)c3c2-c2ccc(F)cc2)cc1` (centres unmarked) [Example 55], the melting point lay within 250 to 252 °C.
Still for that read-out and setting: the figure for `CCN(CC)c1ncnc2oc(-c3ccc(OC)c(OC)c3)c(-c3ccccc3)c12` [Example 63] is 125 to 126 °C; for `COc1ccc(-c2oc3ncnc(N4CCN(C(C)C)CC4)c3c2-c2ccc(F)cc2)cc1OC` [Example 64] it is 180 to 181 °C.
The same measure, in the same setting: next, `COc1cc(OC)cc(-c2oc3ncnc(NC4CCCCCC4)c3c2-c2ccc(F)cc2)c1` [Example 69]: 170 to 172 °C; `CN1CCN(c2ncnc3oc(-c4ccc(NC(=O)c5cccnc5)cc4)c(-c4ccc(F)cc4)c23)CC1` [Example 70]: over 250 °C.
The compound `O=C(Nc1ccc(-c2oc3ncnc(N4CCOCC4)c3c2-c2ccc(F)cc2)cc1)C1CCCO1` (centres unmarked) [Example 71] yielded a melting point of 201 to 202 °C.
On the same count and under the same terms, the figure for `CN1CCN(c2ncnc3oc(-c4ccc(NCc5ccccc5)cc4)c(-c4ccccc4)c23)CC1` [Example 75] is 161 to 163 °C.
Take `COc1cc(OC)cc(-c2oc3ncnc(N4CCN(CCO)CC4)c3c2-c2ccc(F)cc2)c1` [Example 83]: the melting point lay in the range of 161 to 163 °C.
On the same count and under the same terms, next, `COC(=O)c1ccc(C(=O)Nc2ccc(-c3oc4ncnc(N5CCN(C)CC5)c4c3-c3ccc(F)cc3)cc2)cc1` [Example 88]: over 250 °C.
Still for that read-out and setting: next, `CN1CCN(c2ncnc3oc(-c4ccc(Cl)nc4)c(-c4ccccc4)c23)CC1` [Example 94]: 173 to 175 °C; `COc1cc(OC)cc(-c2oc3ncnc(NC(CO)CO)c3c2-c2ccccc2)c1` [Example 108]: 131 to 133 °C; `COc1ccc(-c2c(-c3ccc(OC)c(OC)c3)oc3ncnc(NC4CCCCC4)c23)cc1` [Example 109]: 181 to 182 °C.
On the same count and under the same terms, next, `COc1ccc(-c2oc3ncnc(N4CCC(O)CC4)c3c2-c2ccccc2)cc1OC` [Example 111]: 176 to 178 °C.
`COc1ccc(-c2oc3ncnc(N4CCN(CCO)CC4)c3c2-c2ccccc2)cc1OC` [Example 112] had a melting point of 188 to 189 °C.
Still for that read-out and setting: next, `COc1cc(OC)cc(-c2oc3ncnc(N4CCN(C)CC4)c3c2-c2ccccc2)c1` [Example 113]: 156 to 157 °C; `COc1ccc(-c2oc3ncnc(N4CCN(c5ccccn5)CC4)c3c2-c2ccc(F)cc2)cc1OC` [Example 114]: 210 to 212 °C; `COc1ccc(-c2oc3ncnc(NC4CCCCCC4)c3c2-c2ccc(F)cc2)cc1OC` [Example 115]: 180 to 182 °C.
On the same count and under the same terms, the figure for `COc1ccc(-c2oc3ncnc(N4CCOCC4)c3c2-c2ccc(F)cc2)cc1OC` [Example 116] is 211 to 213 °C; for `CN1CCN(c2ncnc3oc(-c4ccc(NC5CCCCC5)nc4)c(-c4ccccc4)c23)CC1` [Example 125] it is 208 to 209 °C.
Same read-out and setting: next, `COc1cc(OC)cc(-c2oc3ncnc(NCCc4cccs4)c3c2-c2ccccc2)c1` [Example 134]: 152 to 153 °C; `COc1cc(OC)cc(-c2oc3ncnc(NC4CCCC4)c3c2-c2ccccc2)c1` [Example 135]: 153 to 154 °C; `COc1ccc(-c2oc3ncnc(N4CCCCCC4)c3c2-c2ccc(F)cc2)cc1OC` [Example 141]: 148 to 150 °C.
The compound `COc1ccc(-c2oc3ncnc(N4CCC(C(N)=O)CC4)c3c2-c2ccccc2)cc1OC` [Example 154] yielded a melting point of over 250 °C.
Same read-out and setting: next, `COc1cc(OC)cc(-c2oc3ncnc(N(C)CCO)c3c2-c2ccccc2)c1` [Example 157]: 132 to 134 °C; `COc1ccc(-c2oc3ncnc(N(CCO)CCO)c3c2-c2ccccc2)cc1OC` [Example 159]: 137 to 139 °C.
Same read-out and setting: next, `COc1ccc(-c2oc3ncnc(Nc4ccncc4)c3c2-c2ccccc2)cc1OC` [Example 172]: over 250 °C; `CN1CCN(c2ccc(-c3oc4ncnc(N5CCN(C)CC5)c4c3-c3ccccc3)cn2)CC1` [Example 173]: 176 to 177 °C.
Same read-out and setting: the figure for `OCCN(Cc1ccccc1)c1ncnc2oc(-c3ccc(F)cc3)c(-c3ccc(F)cc3)c12` [Example 177] is 156 to 158 °C.
As for `OCCNc1ccc(-c2oc3ncnc(N4CCC(O)CC4)c3c2-c2ccc(F)cc2)cn1` [Example 193, 1-(5-(4-Fluorophenyl)-6-{6-[(2-hydroxyethyl)amino]-3-pyridinyl]furo[2,3-d]pyrimidin-4-yl)-4-piperidinol], the IC50 in series [1] amounted to 30 nM.
